# Where two headings read alike, the source gives them in different places.
# Columns and labels:
# Format in all cases: biochemical
# [1] = target: T1, human recombinant Monoacylglycerol Lipase (Homo sapiens, UniProt Q99685); experiment: MAGL inhibition enzymatic assay, fluorogenic substrate 7-HCA, IC50 at T=0 min or after 30 minute incubation (T=30 min); settings: geometric mean of 2-4 determinations unless otherwise indicated
# T1 sequence (Q99685 1-303): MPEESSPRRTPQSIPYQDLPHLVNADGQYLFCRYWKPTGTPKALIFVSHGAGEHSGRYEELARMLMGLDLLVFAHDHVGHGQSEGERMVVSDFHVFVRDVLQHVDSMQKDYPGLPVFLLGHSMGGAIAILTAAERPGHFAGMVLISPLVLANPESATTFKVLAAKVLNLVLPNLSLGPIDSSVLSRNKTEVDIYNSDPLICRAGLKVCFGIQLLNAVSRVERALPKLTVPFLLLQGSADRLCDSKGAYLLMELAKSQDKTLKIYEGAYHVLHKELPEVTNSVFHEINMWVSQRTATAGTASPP
# Protocol: An equal volume of 7-HCA in assay buffer with 10% DMSO was added either immediately (T=0 min) or after a 30 minute incubation (T=30 min) to initiate the reaction. […] After these dilutions, the final concentration of the test compound ranged from 3 μM to 0.03 nM. […] IC50 values were generated based on a four parameter fit model using ABASE software from IDBS.
# [2] = target: T1, human recombinant Monoacylglycerol Lipase; experiment: MAGL inactivation, enzyme progress curves, kinact/KI; settings: from enzyme progress curves, T = 0 min protocol; geometric mean of 2-4 determinations unless otherwise indicated
# Protocol: Assessment of MAGL inhibition utilizes human recombinant Monoacylglycerol Lipase and the fluorogenic substrate 7-hydroxycoumarinyl arachidonate (7-HCA, Biomol ST-502). 400 nL of a test compound at decreasing concentration (ranging from 150 μM down to 1.5 nM) was spotted into a 384-well back plate (PerkinElmer, 6007279) using a Labcyte Echo, followed by addition of 10 μL of MAGL enzyme in assay buffer (50 mM HEPES, pH 7.4, 100 mM NaCl, 5 mM MgCl2, 0.1% Triton X-100 and 25% glycerin). An equal volume of 7-HCA in assay buffer with 10% DMSO was added either immediately (T=0 min) or after a 30 minute incubation (T=30 min) to initiate the reaction. The final concentration of MAGL enzyme was […] and 7-HCA substrate was 5 μM. After these dilutions, the final concentration of the test compound ranged from 3 μM to 0.03 nM. The reaction was allowed to progress for 60 minutes, after which the plate was read at an Ex/Em of 340/465. Percent inhibitions were calculated based on control wells containing no compound (0% inhibition) and a control compound (e.g., a MAGL inhibitor whose activity is known or was previously reported in the literature, such as one with about 100% inhibition). IC50 values were generated based on a four parameter fit model using ABASE software from IDBS. See e.g., Wang, Y. et al., “A Fluorescence-Based Assay for Monoacylglycerol Lipase Compatible with Inhibitor Screening,” Assay and Drug Development Technologies, 2008, Vol. 6 (3) pp 387-393 (reporting an assay for measuring MAGL activity).
# To measure MAGL inactivation, the same protocol for the (T=0 min) MAGL inhibition IC50 assay was performed with data collected every minute to acquire enzyme progress curves at decreasing concentrations of compound.
# [3] = target: T2, human recombinant FAAH (Homo sapiens, UniProt O00519); experiment: FAAH inhibition enzymatic assay, fluorescent substrate Arachidonoyl-AMC, 30 minute incubation; settings: T = 30 min (30 minute incubation); geometric mean of 2-4 determinations unless otherwise indicated
# T2 construct: purchased Cayman 10010183
# T2 sequence (O00519 1-579): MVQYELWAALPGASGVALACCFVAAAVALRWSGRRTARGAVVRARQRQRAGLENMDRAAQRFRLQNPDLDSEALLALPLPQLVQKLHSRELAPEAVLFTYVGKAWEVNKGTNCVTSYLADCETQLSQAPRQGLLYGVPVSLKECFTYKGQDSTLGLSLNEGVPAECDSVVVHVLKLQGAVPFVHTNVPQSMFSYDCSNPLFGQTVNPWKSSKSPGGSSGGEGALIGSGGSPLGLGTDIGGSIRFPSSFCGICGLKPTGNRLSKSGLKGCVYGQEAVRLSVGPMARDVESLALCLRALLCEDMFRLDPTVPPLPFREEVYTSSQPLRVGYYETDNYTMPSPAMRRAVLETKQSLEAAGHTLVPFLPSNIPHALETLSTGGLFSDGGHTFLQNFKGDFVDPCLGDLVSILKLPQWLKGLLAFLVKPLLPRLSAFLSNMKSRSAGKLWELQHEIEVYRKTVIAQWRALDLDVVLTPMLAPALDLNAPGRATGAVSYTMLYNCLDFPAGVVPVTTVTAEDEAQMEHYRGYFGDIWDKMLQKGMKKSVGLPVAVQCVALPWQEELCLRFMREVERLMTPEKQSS
# Protocol: Assessment of FAAH inhibition utilizes human recombinant FAAH and the fluorescent substrate, Arachidonoyl-AMC. 400 nL of a test compound at decreasing concentrations was spotted into a 384-well back plate (PerkinElmer, 6007279) using a Labcyte Echo, followed by addition of 10 μl of FAAH enzyme (Cayman 10010183) in assay buffer (50 mM Tris, pH 9.0, 1 mM EDTA). After a 30 minute incubation at room temperature, 10 μL of Arachidonyl-AMCA was added in assay buffer with 16% DMSO. Final concentration of FAAH enzyme was 0.0125 Units and AAMCA substrate was used at the Km of 5 μM. […] The reaction was allowed to progress for 60 minutes, after which the plate was read on a Molecular Devices FlexStation reader at an Ex/Em of 355/460. Percent inhibitions were calculated based on controls wells containing either no compound (0% inhibition) or a control compound (e.g., an FAAH inhibitor whose activity is known or was previously reported in the literature, such as one with about 100% inhibition). IC50 values were generated based on a four parameter fit model using ABASE software from IDBS.
# [4] = T = 0 min (substrate added immediately), read-out: MAGL (T = 0 min) IC50
# [5] = T = 30 min (30 minute incubation), read-out: MAGL (T = 30 min) IC50
Compound,"IC50 [1, 4]","IC50 [1, 5]",MAGL kinact/KI [2],IC50 [3]
"O=C(O[C@H](CO)C(F)(F)F)N1CCC2(CC1)CC(c1ccccc1)CO2 (single isomer, unassigned) [Example 96]",0.062 µM,0.005 µM,18560 1/s per M,9.52 µM
"CN(C(=O)c1ccccc1)C1COC2(CCN(C(=O)O[C@H](CO)C(F)(F)F)CC2)C1 (single isomer, unassigned) [Example 99]",0.107 µM,0.011 µM,16883 1/s per M,> 30 µM
"CN(C(=O)c1ccccc1)C1COC2(CCN(C(=O)O[C@H](CO)C(F)(F)F)CC2)C1 (single isomer, unassigned) [Example 100]",0.086 µM,0.01 µM,5664 1/s per M,> 28.7 µM
"CN(C1COC2(CCN(C(=O)O[C@H](CO)C(F)(F)F)CC2)C1)S(=O)(=O)c1cccc(F)c1 (single isomer, unassigned) [Example 108]",0.051 µM,0.003 µM,15960 1/s per M,10.7 µM
"CN(C1COC2(CCN(C(=O)O[C@H](CO)C(F)(F)F)CC2)C1)S(=O)(=O)c1cccc(F)c1 (single isomer, unassigned) [Example 109]",0.021 µM,0.002 µM,34918 1/s per M,> 30 µM
"CN(C1COC2(CCN(C(=O)O[C@H](CO)C(F)(F)F)CC2)C1)S(=O)(=O)c1ccc(F)cc1 (single isomer, unassigned) [Example 110]",0.07 µM,0.006 µM,8796 1/s per M,7.09 µM
"CN(C1COC2(CCN(C(=O)O[C@H](CO)C(F)(F)F)CC2)C1)S(=O)(=O)c1ccc(F)cc1 (single isomer, unassigned) [Example 111]",0.028 µM,0.002 µM,33483 1/s per M,> 30 µM
"O=C(O[C@H](CO)C(F)(F)F)N1CCC2(CC1)CC(Oc1ccccn1)CO2 (single isomer, unassigned) [Example 130]",0.076 µM,0.006 µM,12483 1/s per M,25.7 µM
"O=C(OC(C(F)(F)F)C(F)(F)CO)N1CCC2(CC1)CN(S(=O)(=O)c1ccc(F)cc1)CCO2 (single isomer, unassigned; ent-1) [Example 20, 1,1,1,3,3-Pentafluoro-4-hydroxybutan-2-yl 4-[(4-fluorophenyl)sulfonyl]-1-oxa-4,9-diazaspiro[5.5]undecane-9-carboxylate, ENT-1]",0.061 µM,0.006 µM,4611 1/s per M,> 30 µM
"O=C(O[C@H](CO)C(F)(F)F)N1CCC(c2ccn(-c3ccc(F)cc3)n2)CC1 [Example 2, (2R)-1,1,1-Trifluoro-3-hydroxypropan-2-yl 4-[1-(4-fluorophenyl)-1H-pyrazol-3-yl]piperidine-1-carboxylate]",0.056 µM,0.008 µM,6109 1/s per M,1.14 µM
"O=C(O[C@H](CO)C(F)(F)F)N1C[C@@H]2[C@H](C1)[C@H]2c1ccn(-c2ccc(F)cc2)n1 [Example 3, (2R)-1,1,1-Trifluoro-3-hydroxypropan-2-yl (1α,5α,6α)-6-[1-(4-fluorophenyl)-1H-pyrazol-3-yl]-3-azabicyclo[3.1.0]hexane-3-carboxylate]",0.035 µM,0.003 µM,20005 1/s per M,2.48 µM
"O=C(O[C@H](CO)C(F)(F)F)N1CCC2(CC1)CN(S(=O)(=O)c1ccccc1)CCO2 [Example 7, (2R)-1,1,1-Trifluoro-3-hydroxypropan-2-yl 4-(phenylsulfonyl)-1-oxa-4,9-diazaspiro[5.5]undecane-9-carboxylate]",0.029 µM,0.003 µM,29124 1/s per M,> 24.1 µM

# — patent publication US10723711B2, “1,1,1-trifluoro-3-hydroxypropan-2-yl carbamate derivatives and 1,1,1-trifluoro-4-hydroxybutan-2-yl carbamate derivatives as MAGL inhibitors” (PFIZER INC., priority 2015, dated 2020)
